Laboratory results: publication PMC5218480 (PLoS ONE, 2017)

Test system: MV-4-11 cells
Experiment: Gene expression microarray analysis (Affymetrix PrimeView) and GSEA
Assay type: cell-based, human
Set-up: RFU PODN (11730768_x_at) / Fold change /veh PODN (11730768_x_at) / RFU LINC00158 (11744669_a_at) / Fold change /veh LINC00158 (11744669_a_at) / RFU DUSP10 (11751237_a_at) / Fold change /veh DUSP10 (11751237_a_at) / RFU ID3 (11757404_x_at) / Fold change /veh ID3 (11757404_x_at) / RFU PLEKHG5 (11737974_s_at) / Fold change /veh PLEKHG5 (11737974_s_at) / RFU LRRC4B (11730491_at) / Fold change /veh LRRC4B (11730491_at) / RFU GIMAP4 (11747438_a_at) / Fold change /veh GIMAP4 (11747438_a_at) / RFU KRT8 (11758183_x_at) / Fold change /veh KRT8 (11758183_x_at) / RFU CNN1 (11734310_a_at) / Fold change /veh CNN1 (11734310_a_at) / RFU VPS37D (11726825_at) / Fold change /veh VPS37D (11726825_at) / RFU C10orf10 (11716522_x_at) / Fold change /veh C10orf10 (11716522_x_at) / RFU KIR2DL2 /// KIR2DL4 /// KIR2DL5A /// KIR2DL5B /// KIR2DS1 /// KIR2DS2 /// KIR2DS3 /// KIR2DS4 /// KIR3DL3 /// KIR3DL3 /// KIR3DS1 (11738374_at) / Fold change /veh KIR2DL2 /// KIR2DL4 /// KIR2DL5A /// KIR2DL5B /// KIR2DS1 /// KIR2DS2 /// KIR2DS3 /// KIR2DS4 /// KIR3DL3 /// KIR3DL3 /// KIR3DS1 (11738374_at) / RFU C1QL1 (11718748_at) / Fold change /veh C1QL1 (11718748_at) / RFU TMPRSS4 (11747572_a_at) / Fold change /veh TMPRSS4 (11747572_a_at) / RFU HAMP (11756126_x_at) / Fold change /veh HAMP (11756126_x_at) / RFU RNFT2 (11725882_a_at) / Fold change /veh RNFT2 (11725882_a_at) / RFU NR4A2 (11747474_a_at) / Fold change /veh NR4A2 (11747474_a_at) / RFU ABCC12 (11746883_a_at) / Fold change /veh ABCC12 (11746883_a_at) / RFU TMEM136 (11760407_x_at) / Fold change /veh TMEM136 (11760407_x_at) / RFU CLDN22 /// WWC2 (11732394_at) / Fold change /veh CLDN22 /// WWC2 (11732394_at) / RFU HLA-DPB1 (11760878_x_at) / Fold change /veh HLA-DPB1 (11760878_x_at) / RFU SPINT1 (11716480_a_at) / Fold change /veh SPINT1 (11716480_a_at) / RFU GAP43 (11754022_s_at) / Fold change /veh GAP43 (11754022_s_at) / RFU A4GNT (11735810_at) / Fold change /veh A4GNT (11735810_at) / RFU PRB3 (11715151_x_at) / Fold change /veh PRB3 (11715151_x_at) / RFU TUBB4B (11761932_at) / Fold change /veh TUBB4B (11761932_at) / RFU CAPN14 (11732068_a_at) / Fold change /veh CAPN14 (11732068_a_at) / RFU TMCC2 (11721928_a_at) / Fold change /veh TMCC2 (11721928_a_at) / RFU IRGQ (11745062_a_at) / Fold change /veh IRGQ (11745062_a_at) / RFU FAM174B (11720279_a_at) / Fold change /veh FAM174B (11720279_a_at) / RFU TMPRSS4 (11748680_a_at) / Fold change /veh TMPRSS4 (11748680_a_at) / RFU FAM212B (11763350_a_at) / Fold change /veh FAM212B (11763350_a_at) / RFU PLEKHG5 (11743358_a_at) / Fold change /veh PLEKHG5 (11743358_a_at) / RFU ZSCAN30 (11745921_a_at) / Fold change /veh ZSCAN30 (11745921_a_at) / RFU CMKLR1 (11741424_a_at) / Fold change /veh CMKLR1 (11741424_a_at) / RFU LOC101060620 /// MAPK8IP1 (11723275_at) / Fold change /veh LOC101060620 /// MAPK8IP1 (11723275_at) / RFU SPTSSB (11747773_x_at) / Fold change /veh SPTSSB (11747773_x_at) / RFU PRSS12 (11739890_at) / Fold change /veh PRSS12 (11739890_at) / RFU BIN1 (11741810_x_at) / Fold change /veh BIN1 (11741810_x_at) / RFU WNT11 (11732464_a_at) / Fold change /veh WNT11 (11732464_a_at) / RFU C10orf10 (11716521_a_at) / Fold change /veh C10orf10 (11716521_a_at) / RFU C5orf56 (11738089_at) / Fold change /veh C5orf56 (11738089_at) / RFU CYB561 (11721691_x_at) / Fold change /veh CYB561 (11721691_x_at) / RFU ANKRD19P (11752326_a_at) / Fold change /veh ANKRD19P (11752326_a_at) / RFU OR2T12 /// OR2T33 /// OR2T8 (11738714_s_at) / Fold change /veh OR2T12 /// OR2T33 /// OR2T8 (11738714_s_at) / RFU VCAN (11748164_a_at) / Fold change /veh VCAN (11748164_a_at) / RFU JSRP1 (11732532_at) / Fold change /veh JSRP1 (11732532_at) / RFU KRTAP10-11 (11738290_x_at) / Fold change /veh KRTAP10-11 (11738290_x_at) / RFU MYO3A (11730013_a_at) / Fold change /veh MYO3A (11730013_a_at) / RFU EBF3 (11725865_a_at) / Fold change /veh EBF3 (11725865_a_at) / RFU CAMK2N1 (11719241_x_at) / Fold change /veh CAMK2N1 (11719241_x_at) / RFU C5orf56 (11738088_a_at) / Fold change /veh C5orf56 (11738088_a_at) / RFU OLFML3 (11715873_a_at) / Fold change /veh OLFML3 (11715873_a_at) / RFU LOC100653217 /// NTM (11731650_a_at) / Fold change /veh LOC100653217 /// NTM (11731650_a_at) / RFU MAPK11 (11762145_a_at) / Fold change /veh MAPK11 (11762145_a_at) / RFU FIZ1 (11724087_x_at) / Fold change /veh FIZ1 (11724087_x_at) / RFU OASL (11726364_x_at) / Fold change /veh OASL (11726364_x_at) / RFU SOX15 (11748057_x_at) / Fold change /veh SOX15 (11748057_x_at) / RFU CD79A (11719716_a_at) / Fold change /veh CD79A (11719716_a_at) / RFU HIST1H1D (11736915_at) / Fold change /veh HIST1H1D (11736915_at) / RFU CASKIN2 (11723855_a_at) / Fold change /veh CASKIN2 (11723855_a_at) / RFU LOC730098 (11760151_x_at) / Fold change /veh LOC730098 (11760151_x_at) / RFU OR4N2 (11742367_at) / Fold change /veh OR4N2 (11742367_at) / RFU PRRT2 (11749266_a_at) / Fold change /veh PRRT2 (11749266_a_at) / RFU SNX32 (11753110_a_at) / Fold change /veh SNX32 (11753110_a_at) / RFU CDHR5 (11726645_a_at) / Fold change /veh CDHR5 (11726645_a_at) / RFU RCAN1 (11760418_a_at) / Fold change /veh RCAN1 (11760418_a_at) / RFU FAM167A (11723789_a_at) / Fold change /veh FAM167A (11723789_a_at) / RFU FAM26E (11764081_at) / Fold change /veh FAM26E (11764081_at) / RFU ISYNA1 (11749810_s_at) / Fold change /veh ISYNA1 (11749810_s_at) / RFU ACY1 (11761880_at) / Fold change /veh ACY1 (11761880_at) / RFU 11764098_at / Fold change /veh 11764098_at / RFU SAMD14 (11745864_x_at) / Fold change /veh SAMD14 (11745864_x_at) / RFU NPB (11741838_a_at) / Fold change /veh NPB (11741838_a_at) / RFU TMPRSS6 (11731388_a_at) / Fold change /veh TMPRSS6 (11731388_a_at) / RFU KRTAP10-2 (11738614_at) / Fold change /veh KRTAP10-2 (11738614_at) / RFU ARHGAP8 /// PRR5-ARHGAP8 (11727945_x_at) / Fold change /veh ARHGAP8 /// PRR5-ARHGAP8 (11727945_x_at) / RFU KRTAP5-7 /// NADSYN1 (11734609_at) / Fold change /veh KRTAP5-7 /// NADSYN1 (11734609_at) / RFU RASL12 (11751679_a_at) / Fold change /veh RASL12 (11751679_a_at) / RFU CDKN2B (11736163_a_at) / Fold change /veh CDKN2B (11736163_a_at) / RFU PRF1 (11729649_at) / Fold change /veh PRF1 (11729649_at) / RFU, ZNF638 /// ZNF638-IT1 / Fold change vs veh, ZNF638 /// ZNF638-IT1 / RFU, PANK3 / Fold change vs veh, PANK3 / RFU, SH3YL1 / Fold change vs veh, SH3YL1 / RFU, ZEB2 / Fold change vs veh, ZEB2 / RFU, NRIP1 / Fold change vs veh, NRIP1 / RFU, PTTG1IP / Fold change vs veh, PTTG1IP / RFU, CAPN2 / Fold change vs veh, CAPN2 / RFU, MED14 / Fold change vs veh, MED14 / RFU, SNORA58 / Fold change vs veh, SNORA58 / RFU, C1orf63 / Fold change vs veh, C1orf63 / RFU, LRRFIP1 / Fold change vs veh, LRRFIP1 / RFU, NDUFAF7 / Fold change vs veh, NDUFAF7 / RFU, SLC12A2 / Fold change vs veh, SLC12A2 / RFU, IBTK / Fold change vs veh, IBTK / RFU, ESF1 / Fold change vs veh, ESF1 / Fold change vs veh, TMEM50B / RFU, TAOK1 / Fold change vs veh, TAOK1 / RFU, ACBD3 / Fold change vs veh, ACBD3 / RFU, TMA16 / Fold change vs veh, TMA16 / RFU, RWDD3 / Fold change vs veh, RWDD3 / RFU, BCAT1 / Fold change vs veh, BCAT1 / RFU, EDEM3 / Fold change vs veh, EDEM3 / RFU, TMEM33 / Fold change vs veh, TMEM33 / RFU, WDR75 / Fold change vs veh, WDR75 / RFU, AHCTF1 / Fold change vs veh, AHCTF1 / RFU, TFRC / Fold change vs veh, TFRC / RFU, ZDHHC17 / Fold change vs veh, ZDHHC17 / RFU, NOM1 / Fold change vs veh, NOM1 / RFU, ARL8B / Fold change vs veh, ARL8B / RFU, ZBTB11 / Fold change vs veh, ZBTB11 / RFU, TAMM41 / Fold change vs veh, TAMM41 / RFU, KIAA1704 /// LOC100996395 / Fold change vs veh, KIAA1704 /// LOC100996395 / RFU, ING1 / Fold change vs veh, ING1 / RFU, TRMT61B / Fold change vs veh, TRMT61B / RFU, FUBP3 / Fold change vs veh, FUBP3 / RFU, TP53 / Fold change vs veh, TP53 / RFU, TNKS2 / Fold change vs veh, TNKS2 / RFU, ZFP14 / Fold change vs veh, ZFP14 / RFU, ACTR2 / Fold change vs veh, ACTR2 / RFU, PPP3R1 / Fold change vs veh, PPP3R1 / RFU, PIK3R1 / Fold change vs veh, PIK3R1 / RFU, HNRNPA1 / Fold change vs veh, HNRNPA1 / RFU, RNF170 / Fold change vs veh, RNF170 / RFU, ZNF28 / Fold change vs veh, ZNF28 / RFU, RNGTT / Fold change vs veh, RNGTT / RFU, OGT / Fold change vs veh, OGT / RFU, BRD1 / Fold change vs veh, BRD1 / RFU, MARS / Fold change vs veh, MARS / RFU, ZNF655 / Fold change vs veh, ZNF655 / RFU, FAHD1 / Fold change vs veh, FAHD1 / RFU, BDP1 / Fold change vs veh, BDP1 / RFU, LRRCC1 / Fold change vs veh, LRRCC1 / RFU, ARID1A / Fold change vs veh, ARID1A / RFU, ZNF146 / Fold change vs veh, ZNF146 / RFU, ZNF330 / Fold change vs veh, ZNF330 / RFU, GPN3 / Fold change vs veh, GPN3 / RFU, C9orf123 / Fold change vs veh, C9orf123 / RFU, N4BP2L2 / Fold change vs veh, N4BP2L2 / RFU, ARFIP1 / Fold change vs veh, ARFIP1 / RFU, FAM179B / Fold change vs veh, FAM179B / RFU, BCL10 / Fold change vs veh, BCL10 / RFU, UHRF1BP1L / Fold change vs veh, UHRF1BP1L / RFU, BET1 / Fold change vs veh, BET1 / RFU, CNOT2 / Fold change vs veh, CNOT2 / RFU, ZNF268 / Fold change vs veh, ZNF268 / Fold change vs veh, ZNF507 / RFU, DGCR2 / Fold change vs veh, DGCR2 / RFU, WDSUB1 / Fold change vs veh, WDSUB1 / Fold change vs veh, HSP90B1 /// MIR3652 / RFU, ADSS / Fold change vs veh, ADSS / RFU, GK / Fold change vs veh, GK / RFU, ZNF148 / Fold change vs veh, ZNF148 / RFU, TAF9 / Fold change vs veh, TAF9 / RFU, SLC1A5 / Fold change vs veh, SLC1A5 / RFU, SLMO2 / Fold change vs veh, SLMO2 / RFU, ABCC4 / Fold change vs veh, ABCC4 / RFU, LOC101060439 /// RAP1B / Fold change vs veh, LOC101060439 /// RAP1B / RFU, RFX7 / Fold change vs veh, RFX7 / RFU, GTPBP10 / Fold change vs veh, GTPBP10 / RFU, CNEP1R1 / Fold change vs veh, CNEP1R1 / RFU, BIVM-ERCC5 /// ERCC5 / Fold change vs veh, BIVM-ERCC5 /// ERCC5 / RFU, ILF3 / Fold change vs veh, ILF3 / RFU 11762660_at / Fold change /veh 11762660_at / RFU VCAN (11757783_s_at) / Fold change /veh VCAN (11757783_s_at) / RFU DDX43 (11728927_at) / Fold change /veh DDX43 (11728927_at) / RFU KRT8 (11758188_x_at) / Fold change /veh KRT8 (11758188_x_at) / RFU NKD1 (11759106_at) / Fold change /veh NKD1 (11759106_at) / RFU SRD5A1 (11742802_a_at) / Fold change /veh SRD5A1 (11742802_a_at) / RFU TPSAB1 /// TPSB2 (11721975_s_at) / Fold change /veh TPSAB1 /// TPSB2 (11721975_s_at) / RFU GSTM3 (11746129_a_at) / Fold change /veh GSTM3 (11746129_a_at) / RFU IL23R (11737362_x_at) / Fold change /veh IL23R (11737362_x_at) / RFU TMEM51 (11727254_a_at) / Fold change /veh TMEM51 (11727254_a_at) / RFU PIWIL2 (11732686_x_at) / Fold change /veh PIWIL2 (11732686_x_at) / RFU ORM1 (11744905_x_at) / Fold change /veh ORM1 (11744905_x_at) / RFU CCDC152 (11743942_at) / Fold change /veh CCDC152 (11743942_at) / RFU ECM1 (11717891_a_at) / Fold change /veh ECM1 (11717891_a_at) / RFU IL23R (11748794_a_at) / Fold change /veh IL23R (11748794_a_at) / RFU TNFAIP8L3 (11732012_x_at) / Fold change /veh TNFAIP8L3 (11732012_x_at) / RFU MBOAT4 (11741988_at) / Fold change /veh MBOAT4 (11741988_at) / RFU 11764193_at / Fold change /veh 11764193_at / RFU TMEM53 (11763286_at) / Fold change /veh TMEM53 (11763286_at) / RFU MAGEB2 (11727129_at) / Fold change /veh MAGEB2 (11727129_at) / RFU TMEM200A (11744735_a_at) / Fold change /veh TMEM200A (11744735_a_at) / RFU CCDC152 (11751479_a_at) / Fold change /veh CCDC152 (11751479_a_at) / RFU FAM211A (11726209_a_at) / Fold change /veh FAM211A (11726209_a_at) / RFU RGS16 (11746705_a_at) / Fold change /veh RGS16 (11746705_a_at) / RFU VCAN (11755009_s_at) / Fold change /veh VCAN (11755009_s_at) / RFU RHOB (11743442_s_at) / Fold change /veh RHOB (11743442_s_at) / RFU RGS16 (11720943_a_at) / Fold change /veh RGS16 (11720943_a_at) / RFU RGS16 (11720944_at) / Fold change /veh RGS16 (11720944_at) / RFU, VPS4B / Fold change vs veh, VPS4B / RFU, CREB1 / Fold change vs veh, CREB1 / RFU, DNAJC13 / Fold change vs veh, DNAJC13 / RFU, GNAQ / Fold change vs veh, GNAQ / RFU, CDK5R1 / Fold change vs veh, CDK5R1 / RFU, ZRANB3 / Fold change vs veh, ZRANB3 / RFU, CUL4A / Fold change vs veh, CUL4A / RFU, CCNY / Fold change vs veh, CCNY / RFU, UFL1 / Fold change vs veh, UFL1 / RFU, COG3 / Fold change vs veh, COG3 / RFU, DIAPH2 / Fold change vs veh, DIAPH2 / RFU, SKA2 / Fold change vs veh, SKA2 / RFU, AFF3 / Fold change vs veh, AFF3 / RFU, LMF1 / Fold change vs veh, LMF1 / RFU, IPO11 / Fold change vs veh, IPO11 / RFU, DFFB / Fold change vs veh, DFFB / RFU, FOXP1 / Fold change vs veh, FOXP1 / RFU, CARD8 / Fold change vs veh, CARD8 / RFU, STRN3 / Fold change vs veh, STRN3 / RFU, ADK / Fold change vs veh, ADK / RFU, RASSF2 / Fold change vs veh, RASSF2 / RFU, WIPF1 / Fold change vs veh, WIPF1 / RFU, LARP1B / Fold change vs veh, LARP1B / RFU, RASA1 / Fold change vs veh, RASA1 / RFU, RB1 / Fold change vs veh, RB1 / RFU, PPFIA1 / Fold change vs veh, PPFIA1 / RFU, MAT2A / Fold change vs veh, MAT2A / RFU, CCT5 / Fold change vs veh, CCT5 / RFU, WDR92 / Fold change vs veh, WDR92 / RFU, CUX1 / Fold change vs veh, CUX1 / RFU, TTC7A / Fold change vs veh, TTC7A / RFU, TMEM135 / Fold change vs veh, TMEM135 / RFU, DEPTOR / Fold change vs veh, DEPTOR / RFU, CPM / Fold change vs veh, CPM / RFU, DNAJB6 / Fold change vs veh, DNAJB6 / RFU, CACNA2D3 / Fold change vs veh, CACNA2D3 / RFU, DTX4 / Fold change vs veh, DTX4 / RFU, TFCP2 / Fold change vs veh, TFCP2 / RFU, GMCL1 /// GMCL1P1 / Fold change vs veh, GMCL1 /// GMCL1P1 / RFU, AEBP2 / Fold change vs veh, AEBP2 / RFU, SNHG1 /// SNORD22 /// SNORD25 /// SNORD26 /// SNORD27 /// SNORD28 /// SNORD29 /// SNORD31 / Fold change vs veh, SNHG1 /// SNORD22 /// SNORD25 /// SNORD26 /// SNORD27 /// SNORD28 /// SNORD29 /// SNORD31 / Fold change (Aza/veh), C12orf56 (ProbeSet 11735607_a_at) / Fold change (ACY-1035/veh), C12orf56 (ProbeSet 11735607_a_at) / Fold change (Aza/veh), FGFR1OP (ProbeSet 11751329_s_at) / Fold change (ACY-1035/veh), FGFR1OP (ProbeSet 11751329_s_at) / Fold change (Aza/veh), VPS36 (ProbeSet 11739960_a_at) / Fold change (ACY-1035/veh), VPS36 (ProbeSet 11739960_a_at) / RFU SYPL1 (11715823_x_at) / Fold change /veh SYPL1 (11715823_x_at) / RFU IGFBP7 (11715501_s_at) / Fold change /veh IGFBP7 (11715501_s_at) / RFU REEP3 (11722064_at) / Fold change /veh REEP3 (11722064_at) / RFU IGLL1 (11728026_x_at) / Fold change /veh IGLL1 (11728026_x_at): dose or concentration left out as unconfirmed
Conditions: MV-4-11 cells, 48 hours

Compound: Nc1ncn([C@@H]2O[C@H](CO)[C@@H](O)[C@H]2O)c(=O)n1 [azacitidine]
- Fold change /veh FAM174B (11720279_a_at): 1.12
